Molecules are shown by their SMILES.

Broadly, the EC50 is the concentration giving half of the maximal effect. Read a low EC50 as an effect from little substance.

The target of the assay is AMPK. As to the kind of experiment: AMPK activation, enzyme-linked immunosorbent assay. The class given is biochemical. The settings on record: EC50 for AMPK activation, ELISA. The essentials: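 Compounds were tested for their capacity to activate the kinase using standard, commercially available kit reagents and procedures.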
For orientation: In an ELISA, binding on a coated surface is turned into a signal by an enzyme label.
In turn, `COc1ccc(C(=O)C2CCN(C(=O)c3ccc(C(=O)NC4CCN(Cc5ccc(NC(C)=O)cc5)CC4)cn3)CC2)cc1` [Compound 401, N-(1-(4-acetamidobenzyl)piperidin-4-yl)-6-(4-(4-methoxybenzoyl)piperidine-1-carbonyl)nicotinamide] displayed a concentration giving a half-maximal response (EC50) of 1000 to 5000 nM.

In turn, `N#Cc1ccc(OC2CCN(C(=O)c3ccc(C(=O)NCCOc4ccc(F)cc4)nc3)CC2)cc1` [Compound 306, 5-(4-(4-cyanophenoxy)piperidine-1-carbonyl)-N-(2-(4-fluorophenoxy)ethyl)picolinamide] displayed a half-maximal effective concentration (EC50) of less than 500 nM.

`CS(=O)(=O)c1ccc(OC2CCN(C(=O)c3ccc(C(=O)NC4CCN(Cc5ccc(N6CCCC6)cc5)CC4)nc3)CC2)cc1` [Compound 208, 5-(4-(4-(methylsulfonyl)phenoxy)piperidine-1-carbonyl)-N-(1-(4-(pyrrolidin-1-yl)benzyl)piperidin-4-yl)picolinamide] gave an EC50 of less than 500 nM.

`N#Cc1ccc(-c2ccc(Nc3ccc(C(=O)NC4CCN(Cc5ccccc5)CC4)nc3)cc2)cc1` [Compound 119, N-(1-benzylpiperidin-4-yl)-5-(4′-cyanobiphenyl-4-ylamino)picolinamide] had an EC50 of 1000 to 5000 nM.

`COc1ccc(C(=O)C2CCN(C(=O)c3ccc(C(=O)N[C@H]4CC[C@@H](Oc5ccc(F)cc5)CC4)nc3)CC2)cc1` [Compound 311, N-((cis)-4-(4-fluorophenoxy)cyclohexyl)-5-(4-(4-methoxybenzoyl)piperidine-1-carbonyl)picolinamide] came in with a 50% effective concentration (EC50) of less than 500 nM.

For `O=C(Nc1ccc(Oc2ccc(F)cc2)nc1)c1ccc(C(=O)N2CCC(C(=O)c3ccc(F)c(F)c3)CC2)cn1` [Compound 330, 5-(4-(3,4-difluorobenzoyl)piperidine-1-carbonyl)-N-(6-(4-fluorophenoxy)pyridin-3-yl)picolinamide], the 50% effective concentration (EC50) was 500 to 1000 nM.

`CS(=O)(=O)c1ccc(OC2CCN(C(=O)c3ccc(C(=O)NC4CCN(Cc5ccc(N6CCCC6)cc5)CC4)cn3)CC2)cc1` [Compound 230, 6-(4-(4-(methylsulfonyl)phenoxy)piperidine-1-carbonyl)-N-(1-(4-(pyrrolidin-1-yl)benzyl)piperidin-4-yl)nicotinamide] yielded a half-maximal effective concentration (EC50) of 500 to 1000 nM.

In turn, `O=C(NC1CCN(Cc2cccc(OC(F)(F)F)c2)CC1)c1ccc(C(=O)N2CCC(C(=O)c3ccc(N4CCCC4)cc3)CC2)nc1` [Compound 441, 6-(4-(4-(pyrrolidin-1-yl)benzoyl)piperidine-1-carbonyl)-N-(1-(3-(trifluoromethoxy)benzyl)piperidin-4-yl)nicotinamide] displayed an EC50 of less than 500 nM.

As to `O=C(Nc1ccc(Oc2ccc(F)cc2)nc1)c1ccc(C(=O)N2CCC(C(=O)c3ccc(N4CCCC4)cc3)CC2)nc1` [Compound 382, N-(6-(4-fluorophenoxy)pyridin-3-yl)-6-(4-(4-(pyrrolidin-1-yl)benzoyl)piperidine-1-carbonyl)nicotinamide], the concentration giving a half-maximal response (EC50) is less than 500 nM.

Compound `CS(=O)(=O)c1ccc(OC2CCN(C(=O)c3cnc(C(=O)NC4CCN(Cc5ccc(C#N)cc5)CC4)cn3)CC2)cc1` [Compound 218, N-(1-(4-cyanobenzyl)piperidin-4-yl)-5-(4-(4-(methylsulfonyl)phenoxy)piperidine-1-carbonyl)pyrazine-2-carboxamide] gave an EC50 of less than 500 nM.

Turning to `CS(=O)(=O)Nc1ccc(CN2CCC(NC(=O)c3ccc(C(=O)N4CCC(C(=O)c5ccc(F)cc5F)CC4)nc3)CC2)cc1` [Compound 216, 6-(4-(2,4-difluorobenzoyl)piperidine-1-carbonyl)-N-(1-(4-(methylsulfonamido)benzyl)piperidin-4-yl)nicotinamide], the half-maximal effective concentration (EC50) is greater than 10000 nM.

As for `O=C(N[C@H]1CC[C@@H](Oc2ccc(F)cc2)CC1)c1ccc(C(=O)N2CCC(C(=O)c3ccc(F)cc3)CC2)cn1` [Compound 304, 5-(4-(4-fluorobenzoyl)piperidine-1-carbonyl)-N-((cis)-4-(4-fluorophenoxy)cyclohexyl)picolinamide], the EC50 was less than 500 nM.

Compound `COc1ccc(CN2CCC(NC(=O)c3ccc(C(=O)N4CCC(Oc5cccc(NC(=O)C6CC6)c5)CC4)nc3)CC2)cc1` [Compound 435, 6-(4-(3-(cyclopropanecarboxamido)phenoxy)piperidine-1-carbonyl)-N-(1-(4-methoxybenzyl)piperidin-4-yl)nicotinamide] registered an EC50 of less than 500 nM.

Compound `O=C(Nc1ccc(Oc2ccc(F)cc2)nc1)c1ccc(C(=O)N2CCC(Oc3ccc(S(=O)(=O)C4CC4)cc3)CC2)nc1` [Compound 247, 6-(4-(4-(cyclopropylsulfonyl)phenoxy)piperidine-1-carbonyl)-N-(6-(4-fluorophenoxy)pyridin-3-yl)nicotinamide] had an EC50 of less than 500 nM.

Consider `N#Cc1ccc(OC2CN(C(=O)c3ccc(C(=O)Nc4ccc(Oc5ccc(F)cc5)nc4)nc3)C2)cc1` [Compound 210, 5-(3-(4-cyanophenoxy)azetidine-1-carbonyl)-N-(6-(4-fluorophenoxy)pyridin-3-yl)picolinamide], for which the EC50 was greater than 10000 nM.

The compound `N#Cc1ccc(CN2CCC(NC(=O)c3ccc(C(=O)N4CCC(C(=O)c5cccs5)CC4)cn3)CC2)cc1` [Compound 419, N-(1-(4-cyanobenzyl)piperidin-4-yl)-5-(4-(thiophene-2-carbonyl)piperidine-1-carbonyl)picolinamide] registered a 50% effective concentration (EC50) of less than 500 nM.

Compound `O=C(Nc1ccc(Oc2ccc(F)cc2)nc1)c1ccc(C(=O)N2CCC(Oc3ccc(NS(=O)(=O)C4CC4)cc3)CC2)nc1` [Compound 449, 6-(4-(4-(cyclopropanesulfonamido)phenoxy)piperidine-1-carbonyl)-N-(6-(4-fluorophenoxy)pyridin-3-yl)nicotinamide] showed a concentration for a half-maximal effect (EC50) of 1000 to 5000 nM.

In turn, `CC(C)(c1ccc(F)cc1)N1CCN(C(=O)c2ccc(C(=O)NC3CCN(Cc4ccc(C#N)cc4)CC3)nc2)CC1` [Compound 268, N-(1-(4-cyanobenzyl)piperidin-4-yl)-5-(4-(2-(4-fluorophenyl)propan-2-yl)piperazine-1-carbonyl)picolinamide] had an EC50 of less than 500 nM.

Regarding `CS(=O)(=O)c1ccc(OC2CCN(C(=O)c3ccc(C(=O)NC4CCN(Cc5ccc(F)cc5)CC4)nc3)CC2)cc1` [Compound 226, N-(1-(4-fluorobenzyl)piperidin-4-yl)-5-(4-(4-(methylsulfonyl)phenoxy)piperidine-1-carbonyl)picolinamide], the EC50 was less than 500 nM.

`N#Cc1ccc(O[C@H]2CC[C@@H](NC(=O)c3ccc(C(=O)N4CCC(Oc5ccc(F)cc5)CC4)cn3)CC2)cc1` [Compound 167, N-((cis)-4-(4-cyanophenoxy)cyclohexyl)-5-(4-(4-fluorophenoxy)piperidine-1-carbonyl)picolinamide] gave an EC50 of less than 500 nM.

Turning to `CS(=O)(=O)c1ccc(C(=O)C2CCN(C(=O)c3ccc(C(=O)Nc4ccc(Oc5ccc(F)cc5)nc4)nc3)CC2)cc1` [Compound 232, N-(6-(4-fluorophenoxy)pyridin-3-yl)-5-(4-(4-(methylsulfonyl)benzoyl)piperidine-1-carbonyl)picolinamide], the 50% effective concentration (EC50) is less than 500 nM.

`O=C(Nc1cccc(-c2ccccc2)c1)c1ccc(C(=O)NC2CCN(Cc3ccccc3)CC2)nc1` [Compound 106, N2-(1-benzylpiperidin-4-yl)-N5-(biphenyl-3-yl)pyridine-2,5-dicarboxamide] showed a concentration for a half-maximal effect (EC50) of 5000 to 10000 nM.

With `N#Cc1ccc(CN2CCC(NC(=O)c3ccc(C(=O)N4CCC(C(=O)c5ccc(F)cc5)CC4)cn3)CC2)cc1` [Compound 136, N-(1-(4-cyanobenzyl)piperidin-4-yl)-5-(4-(4-fluorobenzoyl)piperidine-1-carbonyl)picolinamide], the EC50 is less than 500 nM.

`O=C(NC1CCN(Cc2ccc(OC(F)(F)F)cc2)CC1)c1ccc(C(=O)N2CCC(S(=O)(=O)c3ccc(F)cc3)CC2)nc1` [Compound 470, 6-(4-(4-fluorophenylsulfonyl)piperidine-1-carbonyl)-N-(1-(4-(trifluoromethoxy)benzyl)piperidin-4-yl)nicotinamide] displayed an EC50 of less than 500 nM.

For the compound `COc1ccc(CN2CCC(NC(=O)c3ccc(C(=O)N4CCC(Oc5ccc(C#N)cc5)CC4)nc3)CC2)cc1` [Compound 319, 6-(4-(4-cyanophenoxy)piperidine-1-carbonyl)-N-(1-(4-methoxybenzyl)piperidin-4-yl)nicotinamide], the concentration giving a half-maximal response (EC50) is less than 500 nM.

The compound `O=C(NC1CCN(Cc2cc(F)cc(F)c2)CC1)c1ccc(C(=O)N2CCC(C(=O)c3ccc(F)c(F)c3)CC2)cn1` [Compound 298, 5-(4-(3,4-difluorobenzoyl)piperidine-1-carbonyl)-N-(1-(3,5-difluorobenzyl)piperidin-4-yl)picolinamide] returned a concentration for a half-maximal effect (EC50) of less than 500 nM.

For `N#Cc1ccc(CN2CCC(NC(=O)c3ccc(C(=O)N4CCC(Oc5ccc(C#N)cc5)CC4)cn3)CC2)cc1` [Compound 135, N-(1-(4-cyanobenzyl)piperidin-4-yl)-5-(4-(4-cyanophenoxy)piperidine-1-carbonyl)picolinamide], the EC50 was less than 500 nM.

On to `COc1ccc(OC2CCN(C(=O)c3ccc(C(=O)NC4CCN(Cc5ccc(F)cc5)CC4)nc3)CC2)cc1` [Compound 183, N-(1-(4-fluorobenzyl)piperidin-4-yl)-5-(4-(4-methoxyphenoxy)piperidine-1-carbonyl)picolinamide], for which the concentration giving a half-maximal response (EC50) was less than 500 nM.

Turning to `CN(C)C(=O)c1ccc(Oc2ccc(NC(=O)c3ccc(C(=O)N4CCC(C(=O)c5ccc(F)cc5F)CC4)nc3)cn2)cc1` [Compound 481, 6-(4-(2,4-difluorobenzoyl)piperidine-1-carbonyl)-N-(6-(4-(dimethylcarbamoyl)phenoxy)pyridin-3-yl)nicotinamide], the EC50 is less than 500 nM.

In the case of `COc1ccc(C(=O)C2CCN(C(=O)c3ccc(C(=O)N[C@@H]4CCN(Cc5ccc(C#N)c(F)c5)C[C@H]4F)cn3)CC2)cc1` (relative stereo) [Compound 354, N-((trans)-1-(4-cyano-3-fluorobenzyl)-3-fluoropiperidin-4-yl)-6-(4-(4-methoxybenzoyl)piperidine-1-carbonyl)nicotinamide], the EC50 is less than 500 nM.

Regarding `COc1ccc(C(=O)C2CCN(C(=O)c3ccc(C(=O)NC4CCC(Oc5ccc(C#N)cc5)CC4)cn3)CC2)cc1` (stereo not shown) [Compound 315, N-((1s,4s)-4-(4-cyanophenoxy)cyclohexyl)-6-(4-(4-methoxybenzoyl)piperidine-1-carbonyl)nicotinamide], the EC50 was less than 500 nM.
